Values joined by “and” are separate entries in the source; they are usually repeats but may differ in a detail not shown here. Identical values can stand only once.
Test: molar heat capacity at constant volume
Conditions: Fluid (supercritical or subcritical phases), Vacuum adiabatic calorimetry

FC(F)C(F)(F)F [pentafluoroethane]
Conditions | molar heat capacity at constant volume
306 K, Mass density=1202.8 kg/m3 | 102.77 J/K/mol
307 K, Mass density=1202.7 kg/m3 | 103.99 J/K/mol
308 K, Mass density=1202.5 kg/m3 | 103.96 J/K/mol
309 K, Mass density=1202.4 kg/m3 | 102.49 J/K/mol
310 K, Mass density=1202.3 kg/m3 | 101.48 J/K/mol
311 K, Mass density=1202.1 kg/m3 | 102.64 J/K/mol
312 K, Mass density=1202 kg/m3 | 103.21 J/K/mol
313 K, Mass density=1201.9 kg/m3 | 102.64 J/K/mol
314 K, Mass density=1201.7 kg/m3 | 103.24 J/K/mol
315 K, Mass density=1201.6 kg/m3 | 102.92 J/K/mol
316 K, Mass density=1201.5 kg/m3 | 103.09 J/K/mol
317 K, Mass density=1201.4 kg/m3 | 102.73 J/K/mol
318 K, Mass density=1201.2 kg/m3 | 102.19 J/K/mol
319 K, Mass density=1201.1 kg/m3 | 102.74 J/K/mol
320 K, Mass density=1201 kg/m3 | 102.92 J/K/mol
321 K, Mass density=1200.8 kg/m3 | 102.75 J/K/mol and 102.7 J/K/mol
322 K, Mass density=1079.2 kg/m3 | 106.18 J/K/mol and 102.47 J/K/mol
322 K, Mass density=1200.7 kg/m3 | 102.47 J/K/mol and 101.89 J/K/mol
323 K, Mass density=1079.1 kg/m3 | 105.94 J/K/mol and 104.02 J/K/mol
323 K, Mass density=1200.6 kg/m3 | 102.89 J/K/mol and 102.1 J/K/mol
324 K, Mass density=1079 kg/m3 | 105.71 J/K/mol and 105.31 J/K/mol
324 K, Mass density=1200.5 kg/m3 | 102.77 J/K/mol and 102.45 J/K/mol
325 K, Mass density=1078.9 kg/m3 | 104.71 J/K/mol and 104.09 J/K/mol
325 K, Mass density=1200.3 kg/m3 | 102.83 J/K/mol and 102.31 J/K/mol
326 K, Mass density=1078.8 kg/m3 | 103.25 J/K/mol and 103.34 J/K/mol
326 K, Mass density=1200.2 kg/m3 | 102.63 J/K/mol and 102.1 J/K/mol
327 K, Mass density=1078.7 kg/m3 | 104.31 J/K/mol
327 K, Mass density=1200.1 kg/m3 | 102.65 J/K/mol and 102.35 J/K/mol
328 K, Mass density=1078.6 kg/m3 | 105.03 J/K/mol and 104.85 J/K/mol
328 K, Mass density=1199.9 kg/m3 | 102.89 J/K/mol
328 K, Mass density=1200 kg/m3 | 103.64 J/K/mol
329 K, Mass density=1078.5 kg/m3 | 104.79 J/K/mol and 104.41 J/K/mol
329 K, Mass density=1199.8 kg/m3 | 102.81 J/K/mol and 102.69 J/K/mol
330 K, Mass density=1078.4 kg/m3 | 105.01 J/K/mol and 104.07 J/K/mol
330 K, Mass density=1199.7 kg/m3 | 103.09 J/K/mol
331 K, Mass density=1078.3 kg/m3 | 104.36 J/K/mol and 104.2 J/K/mol
331 K, Mass density=1199.6 kg/m3 | 102.64 J/K/mol
332 K, Mass density=976.3 kg/m3 | 110.56 J/K/mol and 112.17 J/K/mol
332 K, Mass density=1078.2 kg/m3 | 104.98 J/K/mol and 105.47 J/K/mol
332 K, Mass density=1199.4 kg/m3 | 103.45 J/K/mol
333 K, Mass density=976.2 kg/m3 | 107.88 J/K/mol and 109.12 J/K/mol
333 K, Mass density=1078.1 kg/m3 | 105.77 J/K/mol and 104.87 J/K/mol
333 K, Mass density=1199.3 kg/m3 | 103.83 J/K/mol
334 K, Mass density=976.2 kg/m3 | 105.25 J/K/mol and 107.12 J/K/mol
334 K, Mass density=1078 kg/m3 | 104.98 J/K/mol and 103.53 J/K/mol
334 K, Mass density=1199.2 kg/m3 | 103.39 J/K/mol
335 K, Mass density=976.1 kg/m3 | 106.11 J/K/mol and 106.99 J/K/mol
335 K, Mass density=1077.9 kg/m3 | 104.43 J/K/mol and 103.57 J/K/mol
335 K, Mass density=1199.1 kg/m3 | 102.85 J/K/mol
336 K, Mass density=976 kg/m3 | 107.32 J/K/mol and 107.23 J/K/mol
336 K, Mass density=1077.8 kg/m3 | 104.74 J/K/mol and 104.05 J/K/mol
336 K, Mass density=1198.9 kg/m3 | 102.26 J/K/mol
337 K, Mass density=975.9 kg/m3 | 107.6 J/K/mol and 108.43 J/K/mol
337 K, Mass density=1077.7 kg/m3 | 105.57 J/K/mol and 105.69 J/K/mol
337 K, Mass density=1198.8 kg/m3 | 103.71 J/K/mol
338 K, Mass density=975.9 kg/m3 | 107.08 J/K/mol and 107.59 J/K/mol
338 K, Mass density=1077.6 kg/m3 | 104.15 J/K/mol and 105.09 J/K/mol
338 K, Mass density=1198.7 kg/m3 | 104.23 J/K/mol
339 K, Mass density=883.4 kg/m3 | 114.19 J/K/mol
339 K, Mass density=975.8 kg/m3 | 106.21 J/K/mol and 106.6 J/K/mol
339 K, Mass density=1077.5 kg/m3 | 103.97 J/K/mol and 103.59 J/K/mol
339 K, Mass density=1198.5 kg/m3 | 104 J/K/mol
340 K, Mass density=883.3 kg/m3 | 112.9 J/K/mol
340 K, Mass density=975.7 kg/m3 | 106.54 J/K/mol and 107.42 J/K/mol
340 K, Mass density=1077.4 kg/m3 | 104.49 J/K/mol and 105.35 J/K/mol
341 K, Mass density=883.3 kg/m3 | 112.1 J/K/mol
341 K, Mass density=975.6 kg/m3 | 107.88 J/K/mol and 107.61 J/K/mol
341 K, Mass density=1077.3 kg/m3 | 105.62 J/K/mol and 105.16 J/K/mol
342 K, Mass density=883.2 kg/m3 | 111.03 J/K/mol
342 K, Mass density=975.6 kg/m3 | 107 J/K/mol
342 K, Mass density=1077.2 kg/m3 | 104.92 J/K/mol and 104.79 J/K/mol
343 K, Mass density=502.9 kg/m3 | 134.81 J/K/mol
343 K, Mass density=883.1 kg/m3 | 110.42 J/K/mol
343 K, Mass density=975.5 kg/m3 | 106.86 J/K/mol
343 K, Mass density=1077.1 kg/m3 | 104.17 J/K/mol and 104.84 J/K/mol
344 K, Mass density=502.9 kg/m3 | 132.16 J/K/mol
344 K, Mass density=585.8 kg/m3 | 125.97 J/K/mol
344 K, Mass density=883.1 kg/m3 | 111.3 J/K/mol
344 K, Mass density=975.4 kg/m3 | 106.41 J/K/mol
344 K, Mass density=1077 kg/m3 | 104.75 J/K/mol and 104.6 J/K/mol
345 K, Mass density=502.9 kg/m3 | 126.98 J/K/mol
345 K, Mass density=585.7 kg/m3 | 123.95 J/K/mol
345 K, Mass density=585.8 kg/m3 | 131.35 J/K/mol
345 K, Mass density=688.7 kg/m3 | 126.83 J/K/mol
345 K, Mass density=883 kg/m3 | 111.02 J/K/mol
345 K, Mass density=975.3 kg/m3 | 107.26 J/K/mol
345 K, Mass density=1076.9 kg/m3 | 105.11 J/K/mol and 104.72 J/K/mol
346 K, Mass density=403.2 kg/m3 | 120.08 J/K/mol
346 K, Mass density=502.9 kg/m3 | 120.15 J/K/mol
346 K, Mass density=585.7 kg/m3 | 120.32 J/K/mol
346 K, Mass density=585.8 kg/m3 | 127.65 J/K/mol
346 K, Mass density=688.7 kg/m3 | 123.21 J/K/mol
346 K, Mass density=774.1 kg/m3 | 115.2 J/K/mol
346 K, Mass density=883 kg/m3 | 110.89 J/K/mol
346 K, Mass density=975.3 kg/m3 | 107.47 J/K/mol and 107.62 J/K/mol
346 K, Mass density=1076.8 kg/m3 | 105.53 J/K/mol and 105.08 J/K/mol
347 K, Mass density=403.2 kg/m3 | 117.75 J/K/mol
347 K, Mass density=503 kg/m3 | 115.93 J/K/mol
347 K, Mass density=585.7 kg/m3 | 117.72 J/K/mol
347 K, Mass density=585.8 kg/m3 | 123.89 J/K/mol
347 K, Mass density=688.7 kg/m3 | 119.23 J/K/mol
347 K, Mass density=774.1 kg/m3 | 114.9 J/K/mol
347 K, Mass density=882.9 kg/m3 | 110.19 J/K/mol
347 K, Mass density=975.2 kg/m3 | 105.52 J/K/mol and 107.28 J/K/mol
347 K, Mass density=1076.7 kg/m3 | 105.04 J/K/mol and 104.54 J/K/mol
348 K, Mass density=403.3 kg/m3 | 116.59 J/K/mol
348 K, Mass density=503 kg/m3 | 118.49 J/K/mol
348 K, Mass density=585.7 kg/m3 | 124.85 J/K/mol and 118.08 J/K/mol
348 K, Mass density=688.7 kg/m3 | 117.7 J/K/mol
348 K, Mass density=774 kg/m3 | 114.62 J/K/mol
348 K, Mass density=882.8 kg/m3 | 109.75 J/K/mol
348 K, Mass density=975.1 kg/m3 | 106.21 J/K/mol and 107.41 J/K/mol
348 K, Mass density=1076.6 kg/m3 | 104.59 J/K/mol and 104.74 J/K/mol
349 K, Mass density=403.3 kg/m3 | 115.69 J/K/mol
349 K, Mass density=503 kg/m3 | 119.76 J/K/mol
349 K, Mass density=585.7 kg/m3 | 123.44 J/K/mol and 117.14 J/K/mol
349 K, Mass density=688.6 kg/m3 | 119.03 J/K/mol
349 K, Mass density=774 kg/m3 | 115.4 J/K/mol
349 K, Mass density=882.8 kg/m3 | 110.59 J/K/mol
349 K, Mass density=975 kg/m3 | 107.41 J/K/mol and 108.49 J/K/mol
349 K, Mass density=1076.6 kg/m3 | 105.38 J/K/mol and 105.95 J/K/mol
350 K, Mass density=403.4 kg/m3 | 113.67 J/K/mol
350 K, Mass density=503 kg/m3 | 116.82 J/K/mol

Reference: the NIST ThermoML archive (doi:10.1021/je0501843)
